{
  "source": "patent US8673935B2",
  "about": "“Drugs for the treatment of sarcogylcanopathies” (Genethon, priority 2006, dated 2014)",
  "key": {"[1]": {"test_system": "mutant R77C α-sarcoglycan", "assay": "Quadritransfected cell model: membrane targeting of mutant R77C α-sarcoglycan, immunohistochemical labelling", "type": "cell-based, human", "description": "(§1) A second aspect of the invention relates to the assay used for in vitro assessment of the efficacy of inhibitors of the endoplasmic reticulum associated degradation (ERAD) pathway, used for the treatment of sarcoglycanopathies. This assay consists of the following steps: • co-transfection of cells with the four sarcoglycan genes (γ-, α-, β- and δ-), of which one carries the mutation to be tested; • incubation for several hours in the presence of the inhibitor; • localisation of the sarcoglycan complex.\n(§2) Cross-sections were dried, then rehydrated in PBS or fixed cells were treated for 20 min with 1% triton in PBS, then incubated for 30 min at room temperature (RT) in PBS containing 15% foetal calf serum. Cross-sections were incubated with polyclonal anti-sarcoglycan antibodies (α-sarcoglycan: dilution 1/1000, targeting amino acids 366-379 of human α-sarcoglycan; β-sarcoglycan: dilution 1/20, NCL-b-SARC (Novocastra); γ-sarcoglycan: dilution 1/20, NCL-g-SARC (Novocastra); dystrophin: dilution 1/20, NCL-DYS2 (Novocastra); and calreticulin: dilution 1/70, ab4109 (Abcam)) for 1 to 2 hours at RT then rinsed 3 times in PBS. […] Cross-sections were then rinsed three times in PBS, mounted with fluoromount-G (Southern Biotech 0100-01) and then observed with a confocal microscope (Leica). Immunohistochemical analysis of human biopsy specimens was performed as described in Hackman et al. (9).\nNIH3T3 or 911 cells were grown in Dulbecco's Modified Eagle Medium supplemented with glutamine, gentamicin and 10% foetal calf serum. Cells were transfected using […] Fugene (ROCHE) per 1 μg plasmid. 0.5 μg of each plasmid (α-SG or α-SG-R77C and β-SG, γ-SG, δ-SG) was used per well in 6-well dishes. For treatment by inhibitors, 43 hours after transfection cells were incubated for 5 hours with either the mannosidase inhibitor (kifunensin 5 μM, VWR) or the proteasome inhibitor (MG132 5 μM diluted in DMSO, Sigma). Cells were then rinsed in PBS and fixed with 3.7% formaldehyde in PBS for 15 min at RT, and rinsed three more times in PBS before immunohistochemical labelling. […]"}, "[2]": {"test_system": "mutant Q11E β-sarcoglycan", "assay": "Quadritransfected cell model: immunohistochemical labelling of mutant Q11E β-sarcoglycan", "type": "cell-based, human", "details": "dMJ 5, 50 or 100 μM; FIG. 12C", "description": "as §1\nC/Immunohistochemical labelling of β-sarcoglycan in cells quadritransfected with the three α-, γ- and δ-sarcoglycans and mutant Q11E β-sarcoglycan with or without 1-deoxymannojirimycin (dMJ) 5, 50 or 100 μM.\nB/Immunohistochemical labelling of β-sarcoglycan in cells quadritransfected with the three α-, γ- and δ-sarcoglycans and mutant Q11E β-sarcoglycan with or without kifunensin 5 μM.\n(§3) Cross-sections were dried, then rehydrated in PBS or fixed cells were treated for 20 min with 1% triton in PBS, then incubated for 30 min at room temperature (RT) in PBS containing 15% foetal calf serum. […]"}, "[3]": {"test_system": "mutant E262K δ-sarcoglycan", "assay": "Quadritransfected cell model: immunohistochemical labelling of mutant E262K δ-sarcoglycan", "type": "cell-based, human", "details": "dMJ 5 or 100; FIG. 12B", "description": "as §1\nB/Immunohistochemical labelling of δ-sarcoglycan in cells quadritransfected with the three α-, β- and γ-sarcoglycans and mutant E262K δ-sarcoglycan with or without 1-deoxymannojirimycin (dMJ) 5 or 100\nFIG. 13: A/Immunohistochemical labelling of δ-sarcoglycan in cells quadritransfected with the three α-, β- and γ-sarcoglycans and mutant E262K δ-sarcoglycan with or without kifunensin 5 μM.\nas §3"}, "[4]": {"details": "cited from earlier work"}, "[5]": {"test_system": "mutant α-sarcoglycan in Sgca−/− muscle", "assay": "Intramuscular inhibitor in Sgca−/− mice injected with AAV-SGCA77C vector: α-sarcoglycan labelling of muscle", "type": "in vivo, mouse", "details": "AAV-SGCA77C in tibialis anterior, 10 μM kifunensin intramuscular over one week, FIG. 11", "description": "as §2\nThe rAAV2/1 viral preparations were injected (10^10 viral genomes (vg) in 30 μl total volume) in the left tibialis anterior muscle of Sgca−/− mice. On days 20, 22, 25 and 27 after injection, 10 μM kifunensin or 20 μM MG132 were injected into the muscle (i.e. either twice or 4 times the concentrations used in vitro to take into account diffusion within the muscle). One day prior to sacrifice (day 27), mice were injected intraperitoneally with Evans blue dye. […]"}},
  "note": "Where a SMILES comes first, the peptide text is derived from it. The star is where a group is joined. Cbz = O=C(OCc1ccccc1)*",
  "data": [
    {"smiles": "OC[C@H]1NC[C@@H](O)[C@@H](O)[C@@H]1O", "note": "[1-deoxymannojirimycin]", "values": [
      {"measurement": "membrane targeting of mutant α-sarcoglycan (R77C)", "setting": "[1]; 100 μM 1-deoxymannojirimycin, FIG. 12A", "value": "efficacy of this substance for restoring membrane targeting"},
      {"measurement": "restoration for mutation Q11E on sub-unit β", "setting": "[2]", "value": "confirmed our working hypothesis"},
      {"measurement": "restoration for mutation E262K on sub-unit δ", "setting": "[3]", "value": "confirmed our working hypothesis"}
    ]},
    {"smiles": "CC(C)C[C@@H](C=O)NC(=O)[C@H](CC(C)C)NC(=O)[C@H](CC(C)C)NC(=O)OCc1ccccc1", "note": "[MG132] (Cbz-Leu-Leu-Leu-aldehyde)", "values": [
      {"measurement": "membrane targeting of mutant α-sarcoglycan (R77C)", "setting": "[1]; MG132 5 μM, 5 hours, 43 hours after transfection, NIH3T3 or 911 cells, FIG. 9", "value": "restored membrane targeting"}
    ]},
    {"smiles": "O=C1N[C@@H]2[C@@H](O)[C@@H](O)[C@H](O)[C@@H](CO)N2C1=O", "note": "[kifunensin, Kifunensin]", "values": [
      {"measurement": "membrane targeting of mutant α-sarcoglycan (R77C)", "setting": "[1]; kifunensin 5 μM, 5 hours, 43 hours after transfection, NIH3T3 or 911 cells, FIG. 10", "value": "restore membrane targeting"},
      {"measurement": "water solubility", "setting": "[4]", "value": "water-soluble"},
      {"measurement": "intracellular α-sarcoglycan aggregates in muscle", "setting": "[5]", "value": "absence of aggregates"}
    ]}
  ]
}
